The test system of data set [1] is Blood platelet aggregation. Briefly: Human in vitro blood platelet aggregation inhibition test (ADP-induced, PRP). The note with it: ADP final concentration 7 µM, concentration to inhibit the maximum aggregation by 50 %. It is filed as cell-based. Here is the method:
Citrated blood (the volume ratio of 3.13 % sodium citrate solution to blood is 1:9) was collected from the cubital vein of a healthy human who had not been received any drugs known to affect the function of blood platelet within 2 weeks prior to starting the test. The blood was centrifuged at 120 x g at room temperature for 15 minutes to give platelet rich plasma (PRP) as a supernatant, and further centrifuged at 1500 x g for 10 minutes to give platelet poor plasma (PPP) as a supernatant.
The blood platelet counts of PRP were adjusted to 50 ― 60 x 10^4/µL by diluting with PPP.
Blood platelet aggregation was monitored according to the method of Born G.V.R., [Nature, vol. 194, page 927 (1962)] using adenosine diphosphate (produced by Sigma Co.; hereinafter referred to as "ADP") as an aggregation-inducing substance. That is, a solution of Compound 1 or dihydrate of the compound of Formula (1) as a test drug in dimethyl sulfoxide was adjusted to the desired concentration with a physiological saline solution. […] The mixture was monitored for 5 minutes by using a blood platelet aggregation ability measurement apparatus (Aggricoda TM · PA-3210; made by Kyoto Daiichi Kagaku Co.) and the concentration of the test drug to inhibit the maximum aggregation by 50 % was calculated.

Data set [2] addresses T1, Purified GPIIb/IIIa receptor (Homo sapiens, UniProt P05106+P08514).
T1 construct: from tissue; the cited Pytela method purifies the receptor from platelet extracts (own knowledge)
Briefly: Fibrinogen receptor (GPIIb/IIIa) binding inhibition test (solid-phase, ELISA detection of bound fibrinogen). The following applies: inhibition of fibrinogen (2 µg/ml) binding to solid phased purified GPIIb/IIIa, 4°C, 16 hours. Here is the method: Purified GPIIb/IIIa was prepared by referring to the methods of Pytela et al (Science, 231 (1986) 1559) and a binding measurement system of solid phased GPIIb/IIIa was carried out by referring to the method of Kouns et al (Blood, 80 (1992) 2539).
Purified GPIIb/IIIa receptor was solidified on 96-well microtiter plates by reacting in a solution (pH 7.4) containing 20 mM Tris-hydrochloric acid, 150 mM sodium chloride, 1 mM calcium chloride, 1 mM magnesium chloride and 0.0005 % Triton X-100 at 4°C for 16 hours. The solid phase was then washed once with a solution (pH 7.4) containing 20 mM Tris-hydrochloric acid, 150 mM sodium chloride, 1 mM calcium chloride, 1 mM magnesium chloride and 0.05 % Tween 20 (Buffer B), and blocked by a solution (pH 7.4) containing 20 mM Tris-hydrochloric acid, 150 mM sodium chloride, 1 mM calcium chloride, 1 mM magnesium chloride and 25 % Block Ace in an amount of 150 µL/well at room temperature for 2 hours. […] The amount of the fibrinogen bound to the plates was measured by an enzyme-linked immunosorbent assay method using antifibrinogen primary antibody and peroxidase-labelled secondary antibody to calculate IC50 value. […]
On the technique in general: In an ELISA, binding on a coated surface is turned into a signal by an enzyme label.

Data set [3] is described as follows: Hygroscopicity test (change rate of weight after storage at defined relative humidity). The class given is physicochemical. The note with it: statement in words; test at 25°C, storage for 30 days, numeric data only in Fig 1. Here is the method: Compound 1 obtained in the above example and dihydrate of the compound of Formula (1) were used as test drugs. About 100 mg of the test drug was taken into a weighing bottle and weighed accurately. The weighed test drug in the weighing bottle was stored at 25°C in a decicator which was adjusted to the defined relative humidity by using a desired saturated salt solution or a thermo-hygrostat (Tabaiestec SH-220) which was adjusted to the proper relative humidity.
After storage for 30 days, the test drug was weighed, and the change rate of weight was calculated to use as an index of hygroscopicity.

Among the data in patent publication EP0930314A1, “p-TOLUENESULFONATE HYDRATE OF THIAZOLINE COMPOUND” (TAISHO PHARMACEUTICAL CO. LTD, priority 1996, dated 1998) are IC50 and hygroscopicity values, retold here.

pIC50: −log10 of the molar value.

T1 sequence (P08514 32-887 limits assumed): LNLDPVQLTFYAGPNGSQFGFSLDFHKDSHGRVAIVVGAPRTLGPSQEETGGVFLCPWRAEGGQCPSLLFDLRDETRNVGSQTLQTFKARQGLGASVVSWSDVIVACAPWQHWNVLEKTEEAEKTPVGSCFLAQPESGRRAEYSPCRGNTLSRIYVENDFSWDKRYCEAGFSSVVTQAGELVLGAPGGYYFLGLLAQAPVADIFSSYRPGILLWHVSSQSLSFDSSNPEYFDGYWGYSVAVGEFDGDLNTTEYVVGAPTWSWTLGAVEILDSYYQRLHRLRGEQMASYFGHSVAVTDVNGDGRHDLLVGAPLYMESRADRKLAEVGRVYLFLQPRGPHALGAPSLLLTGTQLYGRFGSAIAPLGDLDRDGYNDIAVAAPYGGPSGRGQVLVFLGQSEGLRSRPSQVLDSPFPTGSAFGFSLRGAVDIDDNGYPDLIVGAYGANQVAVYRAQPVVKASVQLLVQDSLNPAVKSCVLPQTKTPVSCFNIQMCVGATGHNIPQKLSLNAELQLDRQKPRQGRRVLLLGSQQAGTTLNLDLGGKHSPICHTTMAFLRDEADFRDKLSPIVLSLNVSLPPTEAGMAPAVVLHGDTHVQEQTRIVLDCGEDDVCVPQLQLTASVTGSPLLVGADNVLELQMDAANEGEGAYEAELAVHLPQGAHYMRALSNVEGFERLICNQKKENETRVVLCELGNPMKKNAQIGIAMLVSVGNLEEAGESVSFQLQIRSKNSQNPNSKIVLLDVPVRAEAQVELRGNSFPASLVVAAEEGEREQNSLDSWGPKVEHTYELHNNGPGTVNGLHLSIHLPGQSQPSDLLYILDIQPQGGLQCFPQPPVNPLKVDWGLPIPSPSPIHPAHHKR
T1 sequence (P08514 891-1039 limits assumed): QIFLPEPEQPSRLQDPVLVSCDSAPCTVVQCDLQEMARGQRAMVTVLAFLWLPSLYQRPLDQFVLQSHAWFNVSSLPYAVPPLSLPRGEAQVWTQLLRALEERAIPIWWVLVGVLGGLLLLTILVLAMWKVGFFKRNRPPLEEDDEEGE
T1 sequence (P05106 27-788): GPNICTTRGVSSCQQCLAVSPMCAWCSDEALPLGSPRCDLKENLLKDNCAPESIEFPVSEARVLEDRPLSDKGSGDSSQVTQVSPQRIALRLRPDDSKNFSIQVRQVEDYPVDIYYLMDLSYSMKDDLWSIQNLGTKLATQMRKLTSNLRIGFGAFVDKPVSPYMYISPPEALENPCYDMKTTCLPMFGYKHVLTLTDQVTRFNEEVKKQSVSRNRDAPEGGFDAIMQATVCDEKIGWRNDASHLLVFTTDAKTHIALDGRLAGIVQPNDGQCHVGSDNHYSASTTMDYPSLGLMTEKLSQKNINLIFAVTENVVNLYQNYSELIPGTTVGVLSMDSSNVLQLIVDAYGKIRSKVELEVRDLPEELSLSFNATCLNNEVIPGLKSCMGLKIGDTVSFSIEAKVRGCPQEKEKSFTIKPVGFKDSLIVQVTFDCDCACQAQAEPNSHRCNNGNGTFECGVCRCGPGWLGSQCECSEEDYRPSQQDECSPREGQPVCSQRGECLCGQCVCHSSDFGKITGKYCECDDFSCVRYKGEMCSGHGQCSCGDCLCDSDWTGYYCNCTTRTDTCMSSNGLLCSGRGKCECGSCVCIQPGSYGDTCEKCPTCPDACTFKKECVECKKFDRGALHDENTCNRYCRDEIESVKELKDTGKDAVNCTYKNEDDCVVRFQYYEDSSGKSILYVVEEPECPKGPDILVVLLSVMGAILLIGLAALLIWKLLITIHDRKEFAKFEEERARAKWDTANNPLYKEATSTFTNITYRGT

Regarding `Cc1c(C(=O)NCCC(=O)O)sc(=NC(=O)c2ccc(C(=N)N3CCC4(CC3)OCCO4)cc2)n1C` [Dihydrate of the compound of Formula (1), reference compound], the pIC50 (in general, the negative decadic logarithm of the IC50, by convention in mol/L) in data set [1] is 7.68.

With `Cc1c(C(=O)NCCC(=O)O)sc(=NC(=O)c2ccc(C(=N)N3CCC4(CC3)OCCO4)cc2)n1C` [Compound 1, N-(2-carboxyethyl)-2-{4-[(4,4-ethylenedioxy)piperidin-1-yl]imidoylbenzoylimino}-3,4-dimethyl-3H-thiazoline-5-carboxamide p-toluenesulfonate dihydrate], the pIC50 was 10.09 in data set [2] and 7.66 in data set [1] (Homo sapiens, Platelet). In addition, in data set [3], the hygroscopicity result is given as “non-hygroscopic”.
